Measured values as given in US20080279897A1, “Method of Treating Cellular Damage” (MEDVET SCIENCE PTY. LTD., priority 2005, published 2008).
Positions count from the first letter of the chain named. Numbers in names are those of the source.

How the values were obtained:
SphK [1] = assay: SphK activity in HUVEC; format: cell-based, human; conditions: for effect on high glucose-induced increases in SphK activity: PD98059 10 μM, U0126 2 μM; for effect on SphK activity: 22 mmol/L, osmotic control
Method: Human umbilical vein EC (HUVEC) and bovine aortic EC (BAEC) were routinely cultured in this laboratory as previously described ([…] et al., 2004, Circ. Res. 94:1515-1522). In all experiments EC ranging from passage 2-6 were used. For the experimental studies, EC were allowed to reach confluence in the regular growth media. Medium was then changed to (i) EBM (Clonetics, Walkersville, Md.) containing 1% FCS and 5.5 mM glucose (normal glucose, NG); (ii) NG medium supplemented with additional glucose to final concentration of 22 mM (high glucose); or (iii) NG medium containing 16.5 mM L-glucose or mannitol that served as an osmotic control for the high glucose medium. As described previously (Xia et al., 1999, J. Biol. […] The formation of S1P in vivo was measured in the permeabilized cells as previously described (Xia et al., 1998, Proc. Natl. Acad. Sci. U.S.A 95:14196-14201).

SphK [2] = assay: SphK activity in BAEC (parental or transfected); format: cell-based, bovine; conditions: for effect on SphK activity: BAEC, 22 mmol/L, osmotic control
Method: (§1) Human umbilical vein EC (HUVEC) and bovine aortic EC (BAEC) were routinely cultured in this laboratory as previously described (Verrier et al., 2004, Circ. Res. 94:1515-1522). In all experiments EC ranging from passage 2-6 were used. For the experimental studies, EC were allowed to reach confluence in the regular growth media. Medium was then changed to (i) EBM (Clonetics, Walkersville, Md.) containing 1% FCS and 5.5 mM glucose (normal glucose, NG); (ii) NG medium supplemented with additional glucose to final concentration of 22 mM (high glucose); or (iii) NG medium containing 16.5 mM L-glucose or mannitol that served as an osmotic control for the high glucose medium.
(§2) FLAG-tagged human wild-type SphK1 cDNA and the dominant negative SphK1^G82D were sub-cloned into pcDNA3 plasmids (Invitrogen, Melbourne, Australia) as previous described (Pitson et al., 2000, J. Biol. Chem. 275:33945-33950). Lipofectamine 2000 (Invitrogen) mediated transfection was performed in BAEC according to the manufacturer's protocols. For stable expression, the transfectants were selected in medium containing 800 μg/ml G418 (Invitrogen). The resulting non-clonal pools of G418-resistant transfected cells were then collected and used to avoid clonal variability. The expression of FLAG-tagged transgenes was determined by Westernblot assay with the antibodies against FLAG (M2, Sigma, Clayton, Australia).
(§3) As described previously (Xia et al., 1999, J. Biol. Chem. 274:34499-34505), SphK activity was routinely determined using D-erythro-sphingosine (Biomol, Plymouth Meeting, Pa.) and [γ^32P]ATP (Geneworks, Adelaide, Australia) as substrates, and defined as picomoles of S1P formed per min per mg protein. The formation of S1P in vivo was measured in the permeabilized cells as previously described (Xia et al., 1998, Proc. Natl. Acad. Sci. U.S.A 95:14196-14201).

S1P formation = S1P formation in endothelial cells; format: cell-based, human; conditions: 22 mmol/L
Method: as §1, §3

E-selectin = assay: Cell surface E-selectin expression in HUVEC by flow cytometry; format: cell-based, human; conditions: for effect on E-selectin expression: 5 μM for 6 hrs
Method: as §1
(§4) After the indicated treatment, HUVECs were incubated with primary monoclonal antibodies to VCAM-1, ICAM-1 and E-selectin or an isotype-matched non-relevant antibody for 30 min. Cells were then incubated with FITC-conjugated secondary antibody and fixed in 2.5% formaldehyde. The expression of cell-surface adhesion molecules was measured as fluorescence intensity by use of a Coulter Epics Profile XL flow cytometer, as described previously (Verrier et al., 2004, supra).

ICAM-1 = assay: Cell surface ICAM-1 expression in HUVEC by flow cytometry; format: cell-based, human
Method: as §1, §4

VCAM-1 = assay: Cell surface VCAM-1 expression in HUVEC by flow cytometry; format: cell-based, human
Method: as §1, §4

[3] = system: U937 cells adhering to HUVEC; assay: Adherence of U937 cells to HUVEC; format: cell-based, human; conditions: 50 ng/ml
Method: (§5) U937 cells (CRL 1593.2; ATCC) were grown in RPMI-1640 medium (GIBCO BRL) containing 10% FCS, collected by low-speed centrifugation and resuspended at a density of 2×10^5 cells/ml in medium without FCS. EC were seeded into 24-well plates and cultured with NG or HG medium for 3 days after confluence. After washing twice with warm RPMI-1640 medium, the U937 cell suspension (100 μl/well) was added and incubated for 30 minutes at 37° C. Non-adherent cells were removed by rinsing the plates three times with PBS, and the number of adherent cells was then counted under microscopy with at least 6 fields per well culture being quantified.

NF-κB [4] = assay: NF-κB electrophoretic mobility shift assay in HUVEC; format: cell-based, human; conditions: 2.5 μM, gel shift
Method: (§6) Nuclear extracts were prepared from EC exposed to NG or HG with or without the indicated treatment. The double-stranded oligonucleotides used as probes in the experiments included 5′-[…]-3′ (SEQ ID NO: 1) which contains a consensus NF-κB binding site in E-selectin promoter (underlined). Gel mobility shift of a consensus NF-κB oligonucleotide was performed by incubating a ^32P-labelled NF-κB probe with 4 μg of nuclear proteins as described previously (Xia et al., 1998, supra).

PKC = PKC activity assay in situ in HUVEC; format: cell-based, human; conditions: 2.5 μmol/L, high glucose
Method: PKC activity was measured in situ as described previously (Xia et al., 1996, J. Clin. Invest 98:2018-2026). Briefly, cells were seeded in 24-well plates and exposed to NG or HG for 3 days. After the indicated treatments, total PKC activity was then determined in permeabilized cells in the presence of 10 μM [γ^32P]ATP (5000 cpm/pmol) and the PKC-specific peptide substrate (RKRTLRRL, 200 μM). The activity was then quantified by scintillation counting and normalized to total protein levels.

[5] = system: U937 cells adhering to BAEC; assay: Adherence of U937 cells to transfected BAEC; format: cell-based, bovine; conditions: stably transfected BAEC, 22 mM glucose 3 days
Method: as §2, §5

NF-κB [6] = assay: NF-κB electrophoretic mobility shift assay in BAEC; format: cell-based, bovine; conditions: gel shift
Method: as §2, §6

[7] = 2.5 μmol/L, 3 days high glucose

Q: Which “effect on high glucose-induced increases in SphK activity” value (SphK [1]; 30 min) does the source give for `N#CC(=C(/N)Sc1ccccc1N)/C(C#N)=C(\N)Sc1ccccc1N` [U0126] here?
A: Its value is “completely prevented”.

Q: What does the source list for `O=C[C@@H](O)[C@H](O)[C@@H](O)[C@@H](O)CO` [L-glucose]?
A: effect on SphK activity (SphK [1]): neither mannitol nor L-glucose at 22 mmol/L had any significant effects; effect on SphK activity (SphK [2]): neither mannitol nor L-glucose at 22 mmol/L had any significant effects; effect on S1P production (S1P formation): fails to activate sphingosine kinase or effect S1P production

Q: Which “effect on SphK activity” value (SphK [1]) does the source give for `OC[C@@H](O)[C@@H](O)[C@H](O)[C@H](O)CO` [mannitol] here?
A: The value was “neither mannitol nor L-glucose at 22 mmol/L had any significant effects”.

Q: What about the “effect on SphK activity” value (SphK [2]) of the same molecule?
A: Its value is “neither mannitol nor L-glucose at 22 mmol/L had any significant effects”.

Q: What about the “effect on S1P production” value (S1P formation) of the same molecule?
A: Its value is “fails to activate sphingosine kinase or effect S1P production”.

Q: With `CN(C)CCCn1cc(C2=C(c3c[nH]c4ccccc34)C(=O)NC2=O)c2ccccc21` [GF109203X] as the molecule, how does the “attenuation of high glucose-induced increases in SphK activity” value (SphK [1]; 5 μM, 30 min) read?
A: Its value is about 50%.

Q: With `CCCCCCCCCCCCCCC[C@@H](O)[C@@H](N)COP(=O)(O)O` [dihydro-S1P, sphinganine-1-phosphate] as the molecule, how does the “effect on E-selectin expression” value (E-selectin) read?
A: The value was “no significant effect”.

Q: Which “effect on E-selectin expression” value (E-selectin) does the source give for lysophosphatidic acid [LPA] here?
A: The value was “significant increase”.

Q: pertussis toxin was tested. Which “inhibition of high glucose-induced expression of E-selectin” value (E-selectin; 50 ng/ml, vs untreated cells) did it give?
A: The value was 35%.

Q: What about the “inhibition of LPA-induced E-selectin expression” value (E-selectin; 5 μM LPA 6 hrs, PTX 50 ng/ml) of the same molecule?
A: The value was “completely inhibited”.

Q: And the “inhibition of S1P-induced E-selectin expression” value (E-selectin; 5 μM S1P 6 hrs, PTX 50 ng/ml)?
A: The value was 32%.

Q: And the “inhibition of high glucose-induced expression of ICAM-1” value (ICAM-1; 50 ng/ml, vs untreated cells)?
A: Its value is 42%.

Q: And the “inhibition of high glucose-induced expression of VCAM-1” value (VCAM-1; 50 ng/ml, vs untreated cells)?
A: The value was 30%.

Q: And the “number of leukocytes adhering to high glucose-stimulated EC” value [3]?
A: Its value is “partially, but significantly, reduced”.

Q: With `CCCCCCCCCCCCC/C=C/[C@@H](O)[C@H](CO)N(C)C` [DMS, N′N′-dimethylsphingosine] as the molecule, how does the “effect on high glucose-induced increase in E-selectin expression” value (E-selectin; [7]) read?
A: Its value is “completely abolished”.

Q: And the “effect on high glucose-induced NF-κB activation” value (NF-κB [4])?
A: Its value is “completely inhibited”.

Q: What about the “effect on high glucose-induced increase in ICAM-1 expression” value (ICAM-1; [7]) of the same molecule?
A: Its value is “completely abolished”.

Q: And the “inhibition of high glucose-induced SphK activity” value (SphK [1]; 2.5 μmol/L)?
A: The value was “capable of inhibiting”.

Q: What about the “inhibitory effect on PKC activity” value (PKC) of the same molecule?
A: Its value is “no inhibitory effect”.

Q: What about the “effect on high glucose-induced increase in VCAM-1 expression” value (VCAM-1; [7]) of the same molecule?
A: The value was “completely abolished”.

Q: `COc1cccc(-c2cc(=O)c3ccccc3o2)c1N` [PD98059] was tested. Which “effect on high glucose-induced increases in SphK activity” value (SphK [1]; 30 min) did it give?
A: The value was “completely prevented”.

Q: Which “effect on E-selectin expression” value (E-selectin) does the source give for `CCCCCCCCCCCCC/C=C/[C@@H](O)[C@@H](N)COP(=O)(O)O` [S1P, sphingosine-1-phosphate] here?
A: Its value is “significant increase”.

B1: SphK^WT: FLAG-tagged wild-type human SphK1 stably overexpressed in BAEC by transfection (protein, UniProt Q9NYA1 1-384, looked up)
Sphingosine kinase 1: MDPAGGPRGVLPRPCRVLVLLNPRGGKGKALQLFRSHVQPLLAEAEISFTLMLTERRNHARELVRSEELGRWDALVVMSGDGLMHEVVNGLMERPDWETAIQKPLCSLPAGSGNALAASLNHYAGYEQVTNEDLLTNCTLLLCRRLLSPMNLLSLHTASGLRLFSVLSLAWGFIADVDLESEKYRRLGEMRFTLGTFLRLAALRTYRGRLAYLPVGRVGSKTPASPVVVQQGPVDAHLVPLEEPVPSHWTVVPDEDFVLVLALLHSHLGSEMFAAPMGRCAAGVMHLFYVRAGVSRAMLLRLFLAMEKGRHMEYECPYLVYVPVVAFRLEPKDGKGVFAVDGELMVSEAVQGQVHPNYFWMVSGCVEPPPSWKPQQMPPPEEPL
modifications: FLAG tag
notes: FLAG-tagged wild-type human SphK1 stably overexpressed in BAEC by transfection
Q: B1 was tested. Which “basal level of SphK activity, higher than control cells” value (SphK [2]; stably transfected BAEC) did it give?
A: Its value is 10 fold.

Q: And the “number of leukocytes adhering to high glucose-stimulated BAEC” value [5]?
A: Its value is “markedly enhanced”.

B2: SphK^G82D: point mutation of human SphK1, dominant-negative mutant, stably expressed in BAEC by transfection (protein, UniProt Q9NYA1 1-384, looked up, variant G82D)
Sphingosine kinase 1: B1 Sphingosine kinase 1 with G82D
Q: With B2 as the molecule, how does the “SphK activation under high glucose conditions” value (SphK [2]; BAEC expressing the mutant, 22 mM glucose 3 days) read?
A: Its value is “no SphK activation”.

Q: What about the “high glucose-induced NF-κB activation in cells expressing the mutant” value (NF-κB [6]) of the same molecule?
A: Its value is “incapable of activating NF-κB”.

Q: What about the “number of leukocytes adhering to high glucose-stimulated BAEC” value [5] of the same molecule?
A: Its value is “profoundly attenuated”.
